Measurements as given in ChEMBL document CHEMBL5131432, “Novel 2,4-disubstituted quinazoline analogs as antibacterial agents with improved cytotoxicity profile: Modification of the benzenoid part” (Bioorg Med Chem Lett, 2022).
≈ marks a conversion by molar mass, not a printed value.

Assays:
Staphylococcus aureus [1] = assay: Antibacterial activity against methicillin-sensitive Staphylococcus aureus Newman assessed as bacterial growth inhibition; format: functional
Staphylococcus aureus [2] = assay: Antibacterial activity against methicillin-resistant Staphylococcus aureus N315 assessed as bacterial growth inhibition; format: functional
Staphylococcus aureus [3] = assay: Antibacterial activity against methicillin-resistant and vancomycin-intermediate Staphylococcus aureus Mu50 assessed as bacterial growth inhibition; format: functional
Streptococcus pneumoniae [4] = assay: Antibacterial activity against Streptococcus pneumoniae DSM-20566 assessed as bacterial growth inhibition; format: functional
Streptococcus pneumoniae [5] = assay: Antibacterial activity against penicillin-resistant Streptococcus pneumoniae DSM-11865 assessed as bacterial growth inhibition; format: functional
Enterococcus faecium = assay: Antibacterial activity against Enterococcus faecium DSM-20477 assessed as bacterial growth inhibition; format: functional
Enterococcus faecalis = assay: Antibacterial activity against Enterococcus faecalis DSM-20478 assessed as bacterial growth inhibition; format: functional
Escherichia coli [6] = assay: Antibacterial activity against wild type Escherichia coli DSM-11116 assessed as bacterial growth inhibition; format: functional
Escherichia coli [7] = assay: Antibacterial activity against Escherichia coli K12 harbouring TolC-deficient mutant assessed as bacterial growth inhibition; format: functional
[8] = tested on: Mycolicibacterium smegmatis; assay: Antibacterial activity against Mycobacterium smegmatis mc2 155 assessed as bacterial growth inhibition; format: functional
[9] = Cytotoxicity against human HepG2 cells assessed as inhibition of cell growth; format: toxicity, cell-based
[10] = Selectivity index, ratio of IC50 for cytotoxicity against human HepG2 cells to MIC for antibacterial activity against methicillin-sensitive Staphylococcus aureus Newman; format: toxicity, cell-based
[11] = Selectivity index, ratio of IC50 for cytotoxicity against human HepG2 cells to MIC for antibacterial activity against Streptococcus pneumoniae DSM-20566; format: toxicity, cell-based
[12] = Selectivity index, ratio of IC50 for cytotoxicity against human HepG2 cells to MIC for antibacterial activity against Enterococcus faecium DSM-20477; format: toxicity, cell-based
[13] = Selectivity index, ratio of IC50 for cytotoxicity against human HepG2 cells to MIC for antibacterial activity against Enterococcus faecalis DSM-20478; format: toxicity, cell-based
Escherichia coli [14] = assay: Antibacterial activity against Escherichia coli harbouring TolC-deficient mutant assessed as bacterial growth inhibition; format: functional
[15] = tested on: Mycolicibacterium smegmatis; assay: Antibacterial activity against Mycobacterium smegmatis assessed as bacterial growth inhibition; format: functional

Work on CCCCNc1nc(SCCCC)nc2ccc(-c3cccc(O)c3)cc12 yielded an MIC (Staphylococcus aureus [1]) of 2 µg/mL (≈ 5.24 µM), an MIC (Staphylococcus aureus [2]) of over 128 µg/mL and an MIC (Staphylococcus aureus [3]) of over 128 µg/mL. For the same molecule, the MIC (Streptococcus pneumoniae [4]) was 1 µg/mL (≈ 2.62 µM), the MIC (Streptococcus pneumoniae [5]) was 16 µg/mL (≈ 41.9 µM) and the MIC (Enterococcus faecium) was 4 µg/mL (≈ 10.5 µM). The MIC (Enterococcus faecalis) was 2 µg/mL (≈ 5.24 µM), the MIC (Escherichia coli [6]) was over 128 µg/mL and the MIC (Escherichia coli [7]) was over 128 µg/mL. It also gave an MIC [8] of 16 µg/mL (≈ 41.9 µM), an IC50 [9] of 15.3 µg/mL (≈ 40.1 µM) and a selectivity ratio [10] of 3. The selectivity ratio [11] was 3, the selectivity ratio [12] was 3 and the selectivity ratio [13] was 3.

With CCCCNc1nc(SCCCC)nc2ccccc12 the MIC (Staphylococcus aureus [1]) was 8 µg/mL (≈ 27.6 µM), the MIC (Staphylococcus aureus [2]) was 8 µg/mL (≈ 27.6 µM) and the MIC (Staphylococcus aureus [3]) was 4 µg/mL (≈ 13.8 µM). For the same molecule, the MIC (Streptococcus pneumoniae [4]) was 4 µg/mL (≈ 13.8 µM), the MIC (Streptococcus pneumoniae [5]) was 3 µg/mL (≈ 10.4 µM) and the MIC (Enterococcus faecium) was 4 µg/mL (≈ 13.8 µM). The MIC (Enterococcus faecalis) was 4 µg/mL (≈ 13.8 µM), the MIC (Escherichia coli [6]) was over 128 µg/mL and the MIC (Escherichia coli [7]) was 2 µg/mL (≈ 6.91 µM). For the same molecule, the MIC [8] was 8 µg/mL (≈ 27.6 µM), the MIC (Escherichia coli [14]) was 2 µg/mL (≈ 6.91 µM) and the MIC [15] was 2 µg/mL (≈ 6.91 µM).
